Series [1] has as its system CD8^+ CD25^hi T cell depleted PBMC. As to the kind of experiment: Timecourse T cell proliferation assay, bulk cultures of CD8+ CD25hi T cell depleted PBMC. The format is cell-based, human. The protocol:
Wild type (WT) and T cell epitope depleted peptides ([…] and […], respectively) derived from human sTNFR1 sequence were synthesized (Pepscan Systems, Leystad, Netherlands) and tested using the method of example 1 in which CD8^+ CD25^hi T cell depleted PBMC were used to compare peptides derived from sTNFR-1 for the capacity to stimulate T cell responses from twenty healthy donors. Bulk cultures were established by adding 1 ml of 2-4×10^6/ml CD8^+ CD25^hi T cell depleted PBMC in AIM V culture medium to each well of a 24 well plate (Greiner Bio-One, Frickenhausen, Germany). Each peptide was tested separately against each donor by adding 1 ml 10 μM peptide to each bulk culture (final concentration of 5 μM for a 2 ml per bulk culture). For comparison, additional bulk cultures were established for untreated and positive (KLH) controls. Replicate samples (of T blasts) were removed from bulk cultures on days 6-9 and proliferation was assessed in 96 round bottom plates The data were used to assess the magnitude and kinetics of T cell responses to each peptide on days 6, 7, 8 and 9 post stimulation. In addition, the same twenty healthy donors used in the time course proliferation assay were tested for IL-2 production after 8 days culture with the TNFR1 peptides using the IL-2 Elispot assay. Elispot plates were pre-wet with 70% ethanol then coated with IL-2 capture antibody (R&D systems, Minneapolis, USA) overnight at 4° C. The plates were washed twice with PBS (Invitrogen, Paisley, UK) then blocked in 1% BSA/PBS for 2 hours at room temperature. The plates were washed in PBS prior to the addition of CD8^+ CD25^hi T cell depleted PBMC at 4×10^5 cells per well and test samples at a final concentration of 5 μM. After 7 days at 37° C./5% CO2, the plates were developed. After washing with first water then PBS, IL-2 detection antibody (R&D systems, Minneapolis, USA) in PBS/1% BSA was added for 2 hours at 37° C. After further washing with PBS, streptavadin-AP (R&D systems, Minneapolis, USA) was added for 1.5 hours, the plates washed again then BCIP/NBT chromagen (R&D systems, Minneapolis, USA) added for 30 minutes. The plates were washed with water, dried then spot counts analysed using the Immunospot Elispot analyzer, software version 3 (Cleveland, Ohio, USA).
Wild type (WT) and mutant T cell epitope depleted human sTNFR1 proteins were prepared as human Fc fusion proteins as described in WO/2004/113387 with the epitope-depleted protein having mutations I10Q, T20R, H23P, L56A, L108T, L110H and L149D. Proliferation and IL-2 Elispot assays were performed as in example 2 except that 1 ml of sTNFR1 proteins were added to a final concentration of 10 μg/ml.
Carbamazepine (Novartis Pharmaceuticals UK) and an N-acetyl iminostilbene (an analogue of carbamazepine, synthesized according to Ying et al Journal of Allergy and Clinical Immunology 2006; 118:233-241) were compared for the ability to stimulate T cell responses in a panel of healthy donors. Both compounds were tested at 25 μg/ml in separate bulk cultures for each donor according to the method of example 2. Briefly, bulk cultures were established using 2-4×10^6 CD8^+ CD25^hi T cell depleted PBMC in each well of a 24 well plate. Replicate samples (of T blasts) are removed from bulk cultures on days 5-8 and proliferation was assessed in 96 well plates. The data were used to assess the magnitude and kinetics of T cell responses to each compound.
As for example 2, a SI≧2 was used as a threshold for positive responses and data was further analyzed to determine the coefficient of variance (CV), standard deviation (SD) and significance (p<0.05) using parametric and non-parametric statistical analysis. Any given compound was considered to be immunogenic only if the response is statistically significant (p<0.05) with an SI≧2.

Another series relates to patients. The settings on record: known; cited from earlier work.
In series [2] the test system is CD8^+ CD25^hi depleted PBMC. Kind of series: T cell proliferation assay (3HTdR) with whole CD8+ depleted vs CD8+ CD25hi depleted PBMC. The format is cell-based, human. The settings on record: peptides previously scored borderline or negative; SI≧2 threshold.
Series [3] has as its system CD8^+ CD25^hi T cell depleted PBMC. Kind of series: IL-2 Elispot assay with CD8+ CD25hi T cell depleted PBMC. In kind it is cell-based, human. The settings on record: 5 μM peptide, twenty healthy donors, SI threshold of 2, p<0.05; donors 3, 8 and 11. The procedure:
Wild type (WT) and T cell epitope depleted peptides ([…] and […], respectively) derived from human sTNFR1 sequence were synthesized (Pepscan Systems, Leystad, Netherlands) and tested using the method of example 1 in which CD8^+ CD25^hi T cell depleted PBMC were used to compare peptides derived from sTNFR-1 for the capacity to stimulate T cell responses from twenty healthy donors. Bulk cultures were established by adding 1 ml of 2-4×10^6/ml CD8^+ CD25^hi T cell depleted PBMC in AIM V culture medium to each well of a 24 well plate (Greiner Bio-One, Frickenhausen, Germany). Each peptide was tested separately against each donor by adding 1 ml 10 μM peptide to each bulk culture (final concentration of 5 μM for a 2 ml per bulk culture). For comparison, additional bulk cultures were established for untreated and positive (KLH) controls. Replicate samples (of T blasts) were removed from bulk cultures on days 6-9 and proliferation was assessed in 96 round bottom plates The data were used to assess the magnitude and kinetics of T cell responses to each peptide on days 6, 7, 8 and 9 post stimulation. […] The plates were washed with water, dried then spot counts analysed using the Immunospot Elispot analyzer, software version 3 (Cleveland, Ohio, USA). […]

The subject of series [4] is autologous CD8^+ CD25^hi depleted CD4^+ T cells. Kind of series: Proliferation assay, antigen-pulsed monocyte derived dendritic cells plus autologous CD8+ CD25hi depleted CD4+ T cells. The format is cell-based, human. The following applies: 44 μg/ml, DC pulsed 6 hours, 7 days, SI ≧2, p<0.05, FIG. 4. The protocol: (§1) Monocytes were isolated from PBMC by adherence to tissue culture plastic (>90% CD14^+) and were cultured in 24 well plates in AIM V medium with 5% heat inactivated human AB serum (Autogen Bioclear, Caine, Wiltshire, UK) (growth medium) at an approximate density of 1×10^6 per well (24 well plate). Monocytes were incubated in growth medium containing human IL-4 (Peprotech, Rocky Hill, N.J., USA) and GM-CSF (Peprotech, Rocky Hill, N.J., USA) for 3 days. On day 3, 44 μg/ml of Betaferon (Schering AG, Berlin, Germany) were added in 0.5 ml test buffer plus 3% heat inactivated human AB serum and 25 mM (final concentration) HEPES pH 8. Control wells containing 50 μg/ml KLH or no antigen (untreated cells) were incubated in 1 ml PBS+0.01% Tween 20 plus 3% heat inactivated human AB serum (standard buffer). DC were incubated with antigen for 6 hours after which DCs were washed 6 times to remove exogenous IFN beta. […]
(§2) On day 4, autologous CD8^+ CD25^hi depleted CD4^+ T cells were isolated by negative selection from PBMC (Dynal Human CD4^+ Negative Isolation Kit, Wirral, UK) and were then added to DCs at 1×10^5 per well in both proliferation and Elispot plates. Elispot plates were incubated for 6 days before developing (as in example 2) and proliferation plates were incubated for 7 days before proliferation was measured by incorporation of 3HTdR (a 6 hour pulse at 1 μCi/well). […]

Series [5] has the same test system. Kind of series: IL-2 Elispot assay, antigen-pulsed monocyte derived dendritic cells plus autologous CD8+ CD25hi depleted CD4+ T cells. The format is cell-based, human. The following applies: 44 μg/ml, DC pulsed 6 hours, 6 days, SI ≧2, p<0.05, FIG. 4. The procedure: as §1, §2
Where [6] appears, read: 5 μM peptide, donors 3, 8 and 11.

Take `CC(=O)N1c2ccccc2C=Cc2ccccc21` [N-acetyl iminostilbene]: the “donors stimulated, compared” value in series [1] (25 μg/ml, days 5-8, panel of healthy donors, SI≧2, p<0.05) was “fewer donors than carbamazepine”.
Consider `NC(=O)N1c2ccccc2C=Cc2ccccc21` [carbamazepine, Carbamazepine], for which the “delayed allergic responses in patients” value with patients is “potent inducer of delayed allergic responses”. For the same molecule, the “additional responses detected on days 6 and 7” value in series [1] (25 μg/ml) was “one”. Also, the “day on which the majority of T cell responses are induced” value in series [1] (25 μg/ml, days 5-8) was 5 days.
With GDKFVSWYQQGSGQS [compound 2], the “detection of T cell epitopes after CD25^hi T cell depletion” value in series [2] is “allowed detection of T cell epitopes”.
Regarding HLRHCLSCSKCRKEM [WT peptide], in series [1] (setting [6]), the “peak proliferation responses, time” value was 7 days after peptide addition and the “score as a T cell epitope if proliferation measured at timepoints 8 or 9 days after peptide addition” value is listed as “negative”. In addition, the “donors giving responses, proliferation assay” value in series [1] (5 μM peptide, twenty healthy donors, days 6-9, SI threshold of 2, p<0.05, donors 3, 8 and 11) was “three”. Further, the “donors giving responses, IL-2 Elispot assay” value in series [3] was “three”.
Take PGQTATITCSGHALG [peptide 1]: the “detection of T cell epitopes after CD25^hi T cell depletion” value in series [2] is listed as “allowed detection of T cell epitopes”.

B1: Betaferon: Betaferon (Schering AG), human interferon beta, an immunomodulatory protein (protein, UniProt P01574 22-187, looked up, variant C17S)
Interferon beta: MSYNLLGFLQRSSNFQSQKLLWQLNGRLEYCLKDRMNFDIPEEIKQLQQFQKEDAALTIYEMLQNIFAIFRQDSSSTGWNETIVENLLANVYHQINHLKTVLEEKLEKEDFTRGKLMSSLHLKRYYGRILHYLKAKEYSHCAWTIVRVEILRNFYFINRLTGYLRN
modifications: no N-terminal Met
notes: Betaferon (Schering AG), human interferon beta, an immunomodulatory protein
In the case of B1, the “donors with significant T cell responses, proliferation assay” value in series [4] was 4 out of 29. The “donors with significant T cell responses, IL-2 Elispot assay” value in series [5] was 4 out of 29.

B2: mutant T cell epitope depleted protein: T cell epitope depleted human sTNFR1 Fc fusion protein with mutations I10Q, T20R, H23P, L56A, L108T, L110H and L149D (protein, UniProt P19438 30-211, looked up, variant I10Q T20R H23P L56A L108T L110H L149D)
extracellular domain: LVPHLGDREKRDSVCPQGKYQHPQNNSICCRKCPKGTYLYNDCPGPGQDTDCRECESGSFTASENHARHCLSCSKCRKEMGQVEISSCTVDRDTVCGCRKNQYRHYWSENLFQCFNCSTCHNGTVHLSCQEKQNTVCTCHAGFFLRENECVSCSNCKKSDECTKLCLPQIENVKGTEDSGTT
modifications: extracellular domain human Fc fusion
Consider B2, for which the “donors with significant T cell responses, proliferation assay” value in series [1] (whole protein 10 μg/ml, timecourse, FIG. 3) is on record as “not”.

The values are drawn from US20090221024A1, “T CELL ASSAYS” (ANTITOPE LIMITED, priority 2006, published 2009).
